The structures appear in SMILES notation. A value given as a limit tells only on which side of the number the result lay.

The target of the first assay is T1, human capsaicin receptor (Homo sapiens, UniProt Q8NER1).
T1 construct: pBK-CMV expression construct encoding the full length human capsaicin receptor; expressed in transfected cells
T1 sequence (Q8NER1 whole entry): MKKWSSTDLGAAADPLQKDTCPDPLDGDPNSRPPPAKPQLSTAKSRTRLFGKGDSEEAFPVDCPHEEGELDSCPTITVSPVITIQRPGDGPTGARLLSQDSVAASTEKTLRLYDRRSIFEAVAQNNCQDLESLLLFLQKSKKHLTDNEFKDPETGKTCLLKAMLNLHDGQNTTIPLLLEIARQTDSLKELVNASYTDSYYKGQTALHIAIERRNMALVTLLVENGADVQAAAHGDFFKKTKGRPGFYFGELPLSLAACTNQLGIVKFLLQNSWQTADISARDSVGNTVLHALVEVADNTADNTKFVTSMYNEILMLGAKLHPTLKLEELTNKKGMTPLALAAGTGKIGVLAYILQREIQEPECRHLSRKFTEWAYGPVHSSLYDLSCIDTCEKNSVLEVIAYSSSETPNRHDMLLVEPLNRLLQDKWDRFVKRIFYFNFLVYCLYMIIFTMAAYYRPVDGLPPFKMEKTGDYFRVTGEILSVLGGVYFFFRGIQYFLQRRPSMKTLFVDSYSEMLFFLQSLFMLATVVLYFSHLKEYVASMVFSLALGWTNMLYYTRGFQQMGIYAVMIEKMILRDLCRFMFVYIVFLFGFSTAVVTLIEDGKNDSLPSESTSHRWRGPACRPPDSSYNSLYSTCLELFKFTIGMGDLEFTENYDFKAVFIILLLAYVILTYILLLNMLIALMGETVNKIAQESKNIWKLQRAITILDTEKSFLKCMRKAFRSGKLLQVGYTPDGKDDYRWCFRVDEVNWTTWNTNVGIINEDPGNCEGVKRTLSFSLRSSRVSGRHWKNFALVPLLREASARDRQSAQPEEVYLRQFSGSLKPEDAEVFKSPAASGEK
Put plainly: Calcium mobilization assay, determination of antagonist activity (Example 6). Format: cell-based. The following applies: Table II; IC50 determined as described in Example 6. The essentials: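 HEK293 clonal lines stably expressing full-length human capsaicin receptor, loaded with Fluo-3 AM in KRH buffer pH 7.4, 1–2 h at 37 °C. Compounds (1–5 μM final) preincubated 0.5–6 h at room temperature, then capsaicin at its EC50 added. FLIPR/Fluoroskan calcium signal; IC50 as 50% decrease of capsaicin response.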
A general note: A change in cytosolic calcium serves as a functional read-out for many receptors and channels.
Turning to `CC(C)c1cccc(-c2cc(N3CCN(c4ncccc4Cl)C[C@H]3C)nc(N3CCOCC3)n2)c1` [Example 502, 4-[4-[(2R)-4-(3-chloropyridin-2-yl)-2-methylpiperazin-1-yl]-6-(3-isopropylphenyl)pyrimidin-2-yl]morpholine], the IC50 – broadly, the concentration that gives 50% inhibition – was not above 1000 nM. On to `CSc1cccc(-c2cc(N3CCN(c4ncccc4C#N)C[C@H]3C)nc(N3CCOCC3)n2)c1` [Example 536, 2-((3R)-3-methyl-4-{6-[3-(methylthio)phenyl]-2-morpholin-4-ylpyrimidin-4-yl}piperazin-1-yl)nicotinonitrile], for which the IC50 is not above 1000 nM.

Turning to `Cc1ccc(-c2cc(N3CCN(c4ncccc4C)C[C@H]3C)nc(N3CCOCC3)n2)cc1C` [Example 507, 4-[4-(3,4-dimethylphenyl)-6-[(2R)-2-methyl-4-(3-methylpyridin-2-yl)piperazin-1-yl]pyrimidin-2-yl}morpholine], the IC50 was not above 1000 nM.

`Fc1ccc(-c2nc(N3CCOCC3)nc(N3CCN(c4ncccc4Cl)CC3)n2)cc1Cl` [Example 427, 2-(3-chloro-4-fluorophenyl)-4-[4-(3-chloropyridin-2-yl)piperazin-1-yl]-6-morpholin-4-yl-1,3,5-triazine]: the IC50 was not above 1000 nM. As for `Fc1ccc(-c2nc(N3CCOCC3)nc(N3CCN(c4ncccc4C(F)(F)F)CC3)n2)cc1F` [Example 428, 2-(3,4-difluorophenyl)-4-morpholin-4-yl-6-{4-[3-(trifluoromethyl)pyridin-2-yl]piperazin-1-yl}-1,3,5-triazine], the half-inhibitory concentration (IC50) was not above 1000 nM.

The same assay, now with this note: Table II; IC50 determined as described in Example 6 (antagonist activity, calcium mobilization).
For the molecule `CC1CCCN1c1nc(-c2ccc(F)c(Cl)c2)cc(N2CCN(c3ncncc3Cl)CC2)n1` (stereo not drawn) [Example 1010, 4-(3-chloro-4-fluorophenyl)-6-[4-(5-chloropyrimidin-4-yl)piperazin-1-yl]-2-(2-methylpyrrolidin-1-yl)pyrimidine], the IC50 is not above 1000 nM. Regarding `CC1CCCN1c1nc(-c2ccc(F)cc2)cc(N2CCN(c3ncncc3Cl)C[C@H]2C)n1` (stereo partly drawn) [Example 1013, 4-[(2R)-4-(5-chloropyrimidin-4-yl)-2-methylpiperazin-1-yl]-6-(4-fluorophenyl)-2-(2-methylpyrrolidin-1-yl)pyrimidine], the IC50 is not above 1000 nM.

The assay is the same for the next values; noted with them: Table II; determined as described in Example 6 (antagonist activity); "*" = 1 micromolar or less.
As for `CSc1nc(-c2ccc(F)cc2)cc(N2CCN(c3ncccc3Cl)C[C@H]2C)n1` (stereo in doubt) [Example 839, 4-[4-(3-chloropyridin-2-yl)-2-methylpiperazin-1-yl]-6-(4-fluorophenyl)-2-(methylthio)pyrimidine], the IC50 is not above 1000 nM. On to `COc1ccc(Cl)c(N2CCN(c3cc(-c4ccc(F)cc4)nc(N4CCCC4C)n3)[C@H](C)C2)n1` (stereo partly drawn) [Example 955, 4-[4-(3-chloro-6-methoxypyridin-2-yl)-2-methylpiperazin-1-yl]-6-(4-fluorophenyl)-2-(2-methylpyrrolidin-1-yl)pyrimidine], for which the IC50 was not above 1000 nM.

Regarding `C[C@@H]1CCCN1c1cc(-c2ccc(F)c(Cl)c2)nc(N2CCN(c3ncccc3Cl)C[C@H]2C)n1` [Example 941, 4-(3-chloro-4-fluorophenyl)-2-[(2R)-4-(3-chloropyridin-2-yl)-2-methylpiperazin-1-yl]-6-[(2R)-2-methylpyrrolidin-1-yl]pyrimidine], the IC50 is not above 1000 nM. As for `C[C@H]1CN(c2ncccc2Cl)CCN1c1cc(-c2ccc(Cl)c(F)c2)nc(N2CCCC2)n1` [Example 957, 4-(4-chloro-3-fluorophenyl)-6-[(2S)-4-(3-chloropyridin-2-yl)-2-methylpiperazin-1-yl]-2-pyrrolidin-1-ylpyrimidine], the IC50 is not above 1000 nM. On the same count and under the same terms, then `C[C@@H]1CN(c2ncccc2Cl)CCN1c1cc(-c2cncc(Cl)c2)nc(N2CCCC2)n1` [Example 806, 4-(5-chloropyridin-3-yl)-6-[(2R)-4-(3-chloropyridin-2-yl)-2-methylpiperazin-1-yl]-2-pyrrolidin-1-ylpyrimidine], with not above 1000 nM. Consider `C[C@@H]1CN(c2ncccc2Cl)CCN1c1cc(-c2ccc(C#N)cc2)nc(N2CCCC2)n1` [Example 860, 4-{6-[(2R)-4-(3-chloropyridin-2-yl)-2-methylpiperazin-1-yl]-2-pyrrolidin-1-ylpyrimidin-4-yl}benzonitrite], for which the 50% inhibitory concentration (IC50) was not above 1000 nM.

On to `Cc1ccc(C)n1-c1nc(-c2ccc(F)cc2)cc(N2CCN(c3ncccc3Cl)C[C@H]2C)n1` [Example 873, 4-((2R)-4-(3-chloropyridin-2-yl)-2-methylpiperazin-1-yl]-2-(2,5-dimethyl-1H-pyrrol-1-yl)-6-(4-fluorophenyl)pyrimidine], for which the IC50 is not above 1000 nM. `C[C@@H]1CN(c2ncccc2Cl)CCN1c1cc(-c2ccc(C#N)cc2)nc(S(C)(=O)=O)n1` [Example 847, 4-[6-[(2R)-4-(3-chloropyridin-2-yl)-2-methylpiperazin-1-yl]-2-(methylsulfonyi)pyrimidin-4-yl]benzonitrile]: the IC50 is not above 1000 nM. The same measure, in the same setting: under `Fc1ccc(-c2cc(N3CCN(c4ncccc4C(F)(F)F)CC3)nc(-c3ccccn3)n2)cc1Cl` [Example 830, 4-(3-chloro-4-fluorophenyl)-2-pyridin-2-yl-6-{4-[3-(trifluoromethyl)pyridin-2-yl]piperazin-1-yl}pyrimidine] stands not above 1000 nM; under `CCN(CC)C1CN(c2nc(-c3ccc(F)c(Cl)c3)cc(N3CCN(c4ncccc4C(F)(F)F)CC3)n2)C1` [Example 790, 1-(4-(3-chloro-4-fluorophenyl)-6-{4-[3-(trifluoromethyl)pyridin-2-yl]piperazin-1-yl}pyrimidin-2-yl)-N,N-diethylazetidin-3-amine], not above 1000 nM. As for `C[C@@H]1CCCN1c1cc(-c2ccc(Cl)c(F)c2)nc(N2CCN(c3nccnc3Cl)C[C@@H]2C)n1` [Example 963, 4-(4-chloro-3-fluorophenyl)-2-[(2S)-4-(3-chloropyrazin-2-yl)-2-methylpiperazin-1-yl]-6-[(2R)-2-methylpyrrolidin-1-yl]pyrimidine], the IC50 is not above 1000 nM. Regarding `Cc1cc(-c2cc(N3CCN(c4ncccc4C(F)(F)F)CC3)nc(-n3c(C)ccc3C)n2)ccc1F` [Example 877, 2-(2,5-dimethyl-1H-pyrrol-1-yl)-4-(4-fluoro-3-methylphenyl)-6-{4-[3-(trifluoromethyl)pyridin-2-yl]piperazin-1-yl}pyrimidine], the IC50 was not above 1000 nM.

The assay is the same for the next values; noted with them: determined as described in Example 6 (calcium mobilization, antagonist activity); Table II.
As to `Cc1cc(-c2cc(N3CCN(c4ncccc4C(F)(F)F)C[C@H]3C)nc(N3CCCCC3C)n2)ccc1F` (stereo partly drawn) [Example 770, 4-(4-fluoro-3-methylphenyl)-2-(2-methylpiperidin-1-yl)-6-{(2R)-2-methyl-4-[3-(trifluoromethyl)pyridin-2-yl]piperazin-1-yl}pyrimidine], the 50% inhibitory concentration (IC50) is not above 1000 nM. For `CCN(CC)c1nc(-c2ccc(F)c(F)c2)cc(N2CCN(c3ncccc3C(F)(F)F)CC2)n1` [Example 596, 4-(3,4-difluorophenyl)-N,N-diethyl-6-{4-[3-(trifluoromethyl)pyridin-2-yl]piperazin-1-yl}pyrimidin-2-amine], the 50% inhibitory concentration (IC50) is not above 1000 nM. Take `Cc1cc(-c2cc(N3CCN(c4ncccc4C(F)(F)F)C[C@H]3C)nc(N(C)C(C)C)n2)ccc1F` [Example 762, 4-(4-fluoro-3-methylphenyl)-N-isopropyl-N-methyl-6-{(2R)-2-methyl-4-[3-(trifluoromethyl)pyridin-2-yl]piperazin-1-yl}pyrimidin-2-amine]: the IC50 is not above 1000 nM.

Regarding `Cc1cccnc1N1CCN(c2cc(-c3ccc(F)c(Cl)c3)nc(N3CCCC3C)n2)CC1` (stereo not drawn) [Example 695, 4-(3-chloro-4-fluorophenyl)-6-[4-(3-methylpyridin-2-yl)piperazin-1-yl]-2-(2-methylpyrrolidin-1-yl)pyrimidine], the 50% inhibitory concentration (IC50) was not above 1000 nM. Regarding `CC(C)N(CCO)c1nc(-c2ccc(F)c(Cl)c2)cc(N2CCN(c3ncccc3C(F)(F)F)CC2)n1` [Example 644, 2-[(4-(3-chloro-4-fluorophenyl)-6-{4-[3-(trifluoromethyl)pyridin-2-yl]piperazin-1-yl}pyrimidin-2-yl)(isopropyl)amino]ethanol], the 50% inhibitory concentration (IC50) is not above 1000 nM. Still for that read-out and setting: then `Cc1cc(-c2cc(N3CCN(c4ncccc4C(F)(F)F)CC3)nc(N(C)C(C)C)n2)ccc1F` [Example 640, 4-(4-fluoro-3-methylphenyl)-N-isopropyl-N-methyl-6-{4-[3-(trifluoromethyl)pyridin-2-yl]piperazin-1-yl}pyrimidin-2-amine], with not above 1000 nM; and `CC1CCCN1c1nc(-c2ccc(F)c(F)c2)cc(N2CCN(c3ncccc3F)CC2)n1` (stereo not drawn) [Example 748, 4-(3,4-difluorophenyl)-6-[4-(3-fluoropyridin-2-yl)piperazin-1-yl]-2-(2-methylpyrrolidin-1-yl)pyrimidine], with not above 1000 nM; and `COCCN(C)c1nc(-c2ccc(F)c(C)c2)cc(N2CCN(c3ncccc3C(F)(F)F)CC2)n1` [Example 737, 4-(4-fluoro-3-methylphenyl)-N-(2-methoxyethyl)-N-methyl-6-{4-[3-(trifluoromethyl)pyridin-2-yl]piperazin-1-yl}pyrimid in-2-amine], with not above 1000 nM. Turning to `N#Cc1cccnc1N1CCN(c2cc(-c3ccc(F)c(Cl)c3)nc(N3CCOCC3)n2)CC1` [Example 583, 2-{4-[6-(3-chloro-4-fluorophenyl)-2-morpholin-4-ylpyrimidin-4-yl]piperazin-1-yl}nicotinonitrile], the 50% inhibitory concentration (IC50) is not above 1000 nM. `Cc1cc(-c2cc(N3CCN(c4ncccc4C(F)(F)F)CC3)nc(N3CCN(C(=O)OC(C)(C)C)CC3)n2)ccc1F` [Example 643, tert-butyl 4-(4-(4-fluoro-3-methylphenyl)-6-{4-[3-(trifluoromethyl)pyridin-2-yl]piperazin-1-yl}pyrimidin-2-yl)piperazine-1-carboxylate]: the 50% inhibitory concentration (IC50) was not above 1000 nM. For `COc1cccnc1N1CCN(c2cc(-c3ccc(F)c(Cl)c3)nc(N3CCOCC3)n2)CC1` [Example 586, 4-{4-(3-chloro-4-fluorophenyl)-6-[4-(3-methoxypyridin-2-yl)piperazan-1-yl]pyrimidin-2-yl}morpholine], the 50% inhibitory concentration (IC50) is not above 1000 nM.

The record behind these values is patent US7566712B2, “Biaryl piperazinyl-pyridine analogues” (Neurogen Corporation, priority 2003, dated 2009).
